From US20080182822A1, “Liquid Pharmaceutical Compositions Comprising a Bisphosphonate Compound” (Besins Healthcare SA, priority 2006, published 2008)
Values joined by “and” are separate entries in the source; they are usually repeats but may differ in a detail not shown here. Equal entries are not always repeated. Where two headings read alike, the source gives them in different places.

Settings: rat; for Feces Excretion, Amount Excreted (% of Dose), 8 hours: collection 0-8 hours; for Feces Excretion, Amount Excreted (% of Dose), 120 hours / Urinary Excretion, Amount Excreted (% of Dose), 120 hours: collection 96-120 hours; for Feces Excretion, Amount Excreted (% of Dose), 144 hours / Urinary Excretion, Amount Excreted (% of Dose), 144 hours: collection 120-144 hours; for Feces Excretion, Amount Excreted (% of Dose), 168 hours / Urinary Excretion, Amount Excreted (% of Dose), 168 hours: collection 144-168 hours
[1] = intravenous 0.2 mg/kg (Group 1), Mean
[2] = intravenous 0.2 mg/kg (Group 1), individual animals, 0.2 mg/kg
[3] = intravenous 0.2 mg/kg (Group 1), collection 24-48 hours, individual animals, 0.2 mg/kg
[4] = intravenous 0.2 mg/kg (Group 1), collection 48-72 hours, Mean
[5] = intravenous 0.2 mg/kg (Group 1), collection 48-72 hours, individual animals, 0.2 mg/kg
[6] = intravenous 0.2 mg/kg (Group 1), collection 72-96 hours, Mean
[7] = intravenous 0.2 mg/kg (Group 1), collection 72-96 hours, individual animals, 0.2 mg/kg
[8] = intravenous 0.2 mg/kg (Group 1), necropsy Day 4, Mean
[9] = intravenous 0.2 mg/kg (Group 1), necropsy Day 4, individual animals, 0.2 mg/kg
[10] = intravenous 0.2 mg/kg (Group 1), necropsy Day 8, Mean
[11] = intravenous 0.2 mg/kg (Group 1), necropsy Day 8, individual animals, 0.2 mg/kg

For `NCCCC(O)(P(=O)(O)O)P(=O)(O)O` [14C-alendronate], the “Recovery from Treated Skin, % of Dose” value (dermal (Group 2), necropsy Day 8, individual animals) was 0.25% and 0.22% (2×) and 0.33% and 0.39%, the “Urinary Excretion, Total Excretion (% of Dose), 0-72 hours” value (in vivo) was 1.16% of Dose and the “Feces Excretion, Amount Excreted (% of Dose), 72 hours” value (in vivo, iv, 0.2 mg/kg) was 1.17% of Dose. The “Feces Excretion, Amount Excreted (% of Dose), 96 hours” value (in vivo, iv, 0.2 mg/kg) was 1.17% of Dose, the “Urinary Excretion, Amount Excreted (% of Dose), 24 hours” value (in vivo, iv, 0.2 mg/kg) was 1.19% of Dose and 1.28% of Dose and 1.37% of Dose and 1.27% of Dose and 1.06% of Dose and the “Urinary Excretion, Total Excretion (% of Dose), 0-72 hours” value (in vivo, iv, 0.2 mg/kg) was 11.3% of Dose. The “Feces Excretion, Total Excretion (% of Dose), 0-72 hours” value [1] was 4.1% of Dose, the “Urinary Excretion, Total Excretion (% of Dose), 0-72 hours” value [1] was 7.3% of Dose and the “Feces Excretion, Amount Excreted (% of Dose), 8 hours” value [1] was 0.12% of Dose. The “Feces Excretion, Amount Excreted (% of Dose), 8 hours” value [2] was 0.01% of Dose and 0.02% of Dose and 0.00% of Dose (3×) and 0.67% of Dose, the “Urinary Excretion, Amount Excreted (% of Dose), 24 hours” value (intravenous 0.2 mg/kg (Group 1), collection 8-24 hours, Mean) was 1.2% of Dose and the “Urinary Excretion, Amount Excreted (% of Dose), 24 hours” value (intravenous 0.2 mg/kg (Group 1), collection 8-24 hours, individual animals) was 0.94% of Dose. The “Urinary Excretion, Amount Excreted (% of Dose), 48 hours” value (intravenous 0.2 mg/kg (Group 1), collection 24-48 hours, Mean) was 0.8% of Dose, the “Feces Excretion, Amount Excreted (% of Dose), 48 hours” value [3] was 0.47% of Dose and 0.92% of Dose and the “Urinary Excretion, Amount Excreted (% of Dose), 48 hours” value [3] was 0.78% of Dose and 0.94% of Dose and 0.75% of Dose and 0.95% of Dose and 0.34% of Dose and 0.85% of Dose. The “Feces Excretion, Amount Excreted (% of Dose), 72 hours” value [4] was 0.57% of Dose, the “Urinary Excretion, Amount Excreted (% of Dose), 72 hours” value [4] was 0.4% of Dose and the “Feces Excretion, Amount Excreted (% of Dose), 72 hours” value [5] was 0.15% of Dose and 0.24% of Dose and 0.44% of Dose and 0.87% of Dose. For the same compound, the “Urinary Excretion, Amount Excreted (% of Dose), 72 hours” value [5] was 0.56% of Dose and 0.34% of Dose and 0.51% of Dose and 0.61% of Dose and 0.20% of Dose and 0.26% of Dose, the “Feces Excretion, Amount Excreted (% of Dose), 96 hours” value [6] was 0.55% of Dose and the “Urinary Excretion, Amount Excreted (% of Dose), 96 hours” value [6] was 0.5% of Dose. For the same compound, the “Feces Excretion, Amount Excreted (% of Dose), 96 hours” value [7] was 0.32% of Dose and 0.14% of Dose, the “Urinary Excretion, Amount Excreted (% of Dose), 96 hours” value [7] was 0.74% of Dose and 0.15% of Dose and 0.57% of Dose and the “Feces Excretion, Amount Excreted (% of Dose), 120 hours” value [1] was 0.41% of Dose. The “Urinary Excretion, Amount Excreted (% of Dose), 120 hours” value [1] was 0.3% of Dose, the “Feces Excretion, Amount Excreted (% of Dose), 120 hours” value [2] was 0.56% of Dose and 0.12% of Dose and 0.54% of Dose and the “Urinary Excretion, Amount Excreted (% of Dose), 120 hours” value [2] was 0.43% of Dose and 0.11% of Dose and 0.27% of Dose. For the same compound, the “Feces Excretion, Amount Excreted (% of Dose), 144 hours” value [1] was 0.34% of Dose, the “Urinary Excretion, Amount Excreted (% of Dose), 144 hours” value [1] was 0.3% of Dose and the “Feces Excretion, Amount Excreted (% of Dose), 144 hours” value [2] was 0.36% of Dose and 0.08% of Dose and 0.59% of Dose. For the same compound, the “Urinary Excretion, Amount Excreted (% of Dose), 144 hours” value [2] was 0.59% of Dose and 0.06% of Dose and 0.31% of Dose, the “Feces Excretion, Amount Excreted (% of Dose), 168 hours” value [1] was 0.04% of Dose and the “Urinary Excretion, Amount Excreted (% of Dose), 168 hours” value [1] was 0.2% of Dose. The “Feces Excretion, Amount Excreted (% of Dose), 168 hours” value [2] was 0.06% of Dose and 0.02% of Dose and 0.05% of Dose, the “Urinary Excretion, Amount Excreted (% of Dose), 168 hours” value [2] was 0.33% of Dose and 0.18% of Dose and 0.16% of Dose and the “Feces Excretion, Total Excretion (% of Dose), 0-72 hours” value [2] was 3.1% of Dose and 8.6% of Dose and 2.4% of Dose and 3.2% of Dose and 2.3% of Dose and 5.0% of Dose. For the same compound, the “Feces Excretion, Total Excretion (% of Dose), 0-168 hours” value [2] was 5.6% of Dose and 3.1% of Dose and 8.2% of Dose, the “Urinary Excretion, Total Excretion (% of Dose), 0-72 hours” value [2] was 8.0% of Dose and 7.6% of Dose and 7.8% of Dose and 3.9% of Dose and 5.2% of Dose and the “Concentration in bone, Femur” value [8] was 0.500 μg 14C-alendronate/g bone. The “Concentration in bone, Tibia” value [8] was 0.492 μg 14C-alendronate/g bone, the “Concentration in bone, Femur” value [9] was 0.525 μg 14C-alendronate/g bone and 0.408 μg 14C-alendronate/g bone and 0.568 μg 14C-alendronate/g bone and the “Concentration in bone, Tibia” value [9] was 0.551 μg 14C-alendronate/g bone and 0.547 μg 14C-alendronate/g bone and 0.379 μg 14C-alendronate/g bone. The “Concentration in bone, Femur” value [10] was 0.679 μg 14C-alendronate/g bone, the “Concentration in bone, Tibia” value [10] was 0.586 μg 14C-alendronate/g bone and the “Concentration in bone, Femur” value [11] was 0.707 μg 14C-alendronate/g bone and 0.692 μg 14C-alendronate/g bone and 0.639 μg 14C-alendronate/g bone. For the same compound, the “Concentration in bone, Tibia” value [11] was 0.704 μg 14C-alendronate/g bone and 0.680 μg 14C-alendronate/g bone and 0.374 μg 14C-alendronate/g bone.
